Measured values published in PMC8213057, “Targeting ALK2: An Open Science Approach to Developing Therapeutics for the Treatment of Diffuse Intrinsic Pontine Glioma” (Journal of Medicinal Chemistry, 2020).

Key:
ABL1 = ABL1 (Homo sapiens, UniProt P00519); settings: 1 μM; Run 1, Run 2
p70S6K/RPS6KB1 = p70S6K/RPS6KB1 (Homo sapiens, UniProt P23443); settings: 1 μM; Run 1, Run 2
MAPKAPK5/PRAK = biological target: T1, MAPKAPK5/PRAK (Homo sapiens, UniProt Q8IW41); settings: 1 μM; Run 1, Run 2
T1 sequence (Q8IW41 1-473): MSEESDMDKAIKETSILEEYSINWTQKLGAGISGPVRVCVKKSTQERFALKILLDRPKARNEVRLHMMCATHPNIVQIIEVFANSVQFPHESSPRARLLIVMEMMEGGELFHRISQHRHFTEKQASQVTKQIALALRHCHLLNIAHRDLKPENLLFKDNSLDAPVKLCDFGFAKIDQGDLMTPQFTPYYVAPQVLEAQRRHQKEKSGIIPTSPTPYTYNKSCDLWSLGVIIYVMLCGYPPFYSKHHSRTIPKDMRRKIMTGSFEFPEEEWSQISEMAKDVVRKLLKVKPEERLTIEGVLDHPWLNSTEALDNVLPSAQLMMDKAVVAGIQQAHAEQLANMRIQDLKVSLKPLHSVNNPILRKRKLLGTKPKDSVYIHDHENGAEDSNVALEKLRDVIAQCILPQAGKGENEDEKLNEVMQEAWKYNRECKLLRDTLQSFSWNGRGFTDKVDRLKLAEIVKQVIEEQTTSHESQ

LATS1 = biological target: T2, LATS1 (Homo sapiens, UniProt O95835); test: biochemical; settings: read-out: % enzyme activity, 1 μM; Run 1, Run 2
T2 sequence (O95835 1-1130): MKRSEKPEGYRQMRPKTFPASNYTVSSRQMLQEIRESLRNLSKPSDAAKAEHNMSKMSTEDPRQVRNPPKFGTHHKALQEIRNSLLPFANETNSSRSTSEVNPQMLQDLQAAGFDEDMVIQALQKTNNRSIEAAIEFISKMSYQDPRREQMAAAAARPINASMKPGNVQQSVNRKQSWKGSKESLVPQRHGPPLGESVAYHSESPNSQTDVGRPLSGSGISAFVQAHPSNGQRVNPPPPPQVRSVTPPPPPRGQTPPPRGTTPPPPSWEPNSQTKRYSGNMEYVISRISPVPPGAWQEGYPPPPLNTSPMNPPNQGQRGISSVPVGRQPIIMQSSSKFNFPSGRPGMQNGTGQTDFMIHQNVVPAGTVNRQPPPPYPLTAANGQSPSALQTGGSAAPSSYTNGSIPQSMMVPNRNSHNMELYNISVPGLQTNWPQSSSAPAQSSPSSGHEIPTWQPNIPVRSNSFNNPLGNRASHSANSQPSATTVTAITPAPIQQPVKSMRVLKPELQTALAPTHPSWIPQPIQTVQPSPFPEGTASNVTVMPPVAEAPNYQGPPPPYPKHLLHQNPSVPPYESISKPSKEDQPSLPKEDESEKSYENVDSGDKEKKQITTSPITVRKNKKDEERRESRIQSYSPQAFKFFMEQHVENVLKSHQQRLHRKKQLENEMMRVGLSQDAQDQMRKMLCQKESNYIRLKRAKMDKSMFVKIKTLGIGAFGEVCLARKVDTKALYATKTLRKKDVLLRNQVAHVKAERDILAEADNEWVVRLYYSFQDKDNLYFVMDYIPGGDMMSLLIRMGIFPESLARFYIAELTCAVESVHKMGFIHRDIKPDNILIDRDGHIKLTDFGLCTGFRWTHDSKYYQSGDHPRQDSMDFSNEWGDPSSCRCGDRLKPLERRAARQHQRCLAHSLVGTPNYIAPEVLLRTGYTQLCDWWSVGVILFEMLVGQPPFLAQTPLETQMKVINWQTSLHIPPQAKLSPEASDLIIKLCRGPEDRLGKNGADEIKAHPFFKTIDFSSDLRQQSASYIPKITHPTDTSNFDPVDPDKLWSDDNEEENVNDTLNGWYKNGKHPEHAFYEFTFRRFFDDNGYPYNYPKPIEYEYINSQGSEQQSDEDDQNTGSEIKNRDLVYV

PAK2 = PAK2 (Homo sapiens, UniProt Q13177); settings: 1 μM; Run 1, Run 2
CTK/MATK = biological target: T3, CTK/MATK (Homo sapiens, UniProt P42679); test: biochemical; settings: read-out: % enzyme activity, 1 μM; Run 1, Run 2
T3 sequence (P42679 1-507): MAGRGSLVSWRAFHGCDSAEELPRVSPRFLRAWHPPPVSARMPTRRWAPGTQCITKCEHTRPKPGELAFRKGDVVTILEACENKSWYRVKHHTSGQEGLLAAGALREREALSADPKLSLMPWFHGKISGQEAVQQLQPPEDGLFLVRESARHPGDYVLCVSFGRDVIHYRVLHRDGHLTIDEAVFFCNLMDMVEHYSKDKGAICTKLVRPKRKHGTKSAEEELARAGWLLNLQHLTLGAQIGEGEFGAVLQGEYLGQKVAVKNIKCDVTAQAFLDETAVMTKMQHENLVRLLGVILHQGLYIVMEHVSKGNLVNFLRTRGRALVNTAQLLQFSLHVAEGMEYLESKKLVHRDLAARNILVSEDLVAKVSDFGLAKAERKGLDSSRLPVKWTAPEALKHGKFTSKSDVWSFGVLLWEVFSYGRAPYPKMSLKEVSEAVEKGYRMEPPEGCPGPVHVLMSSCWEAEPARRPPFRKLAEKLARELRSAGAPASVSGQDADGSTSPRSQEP

GRK5 = GRK5 (Homo sapiens, UniProt P34947); test: biochemical; settings: read-out: % enzyme activity, 1 μM; Run 1, Run 2
BLK = BLK (Homo sapiens, UniProt P51451); test: biochemical; settings: read-out: % enzyme activity, 1 μM; Run 1, Run 2
VRK2 = VRK2 (Homo sapiens, UniProt Q86Y07); test: biochemical; settings: read-out: % enzyme activity, 1 μM; Run 1, Run 2
Chain of VRK2 (Q86Y07 whole entry, species assumed): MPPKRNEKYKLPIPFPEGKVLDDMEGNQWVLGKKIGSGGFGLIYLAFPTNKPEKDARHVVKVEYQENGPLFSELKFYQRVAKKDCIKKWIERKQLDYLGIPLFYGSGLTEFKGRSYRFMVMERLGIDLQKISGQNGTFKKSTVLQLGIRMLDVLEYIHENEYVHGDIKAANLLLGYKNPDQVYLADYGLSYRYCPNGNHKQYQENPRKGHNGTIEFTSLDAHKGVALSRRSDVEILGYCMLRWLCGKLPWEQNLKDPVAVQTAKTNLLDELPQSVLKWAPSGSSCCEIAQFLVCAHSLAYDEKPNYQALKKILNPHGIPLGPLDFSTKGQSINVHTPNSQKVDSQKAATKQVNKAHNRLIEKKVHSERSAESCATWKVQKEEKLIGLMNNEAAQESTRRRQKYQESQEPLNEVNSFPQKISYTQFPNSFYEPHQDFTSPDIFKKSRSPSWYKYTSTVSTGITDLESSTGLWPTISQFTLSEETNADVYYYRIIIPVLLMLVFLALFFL

Chain of GRK5 (P34947 whole entry): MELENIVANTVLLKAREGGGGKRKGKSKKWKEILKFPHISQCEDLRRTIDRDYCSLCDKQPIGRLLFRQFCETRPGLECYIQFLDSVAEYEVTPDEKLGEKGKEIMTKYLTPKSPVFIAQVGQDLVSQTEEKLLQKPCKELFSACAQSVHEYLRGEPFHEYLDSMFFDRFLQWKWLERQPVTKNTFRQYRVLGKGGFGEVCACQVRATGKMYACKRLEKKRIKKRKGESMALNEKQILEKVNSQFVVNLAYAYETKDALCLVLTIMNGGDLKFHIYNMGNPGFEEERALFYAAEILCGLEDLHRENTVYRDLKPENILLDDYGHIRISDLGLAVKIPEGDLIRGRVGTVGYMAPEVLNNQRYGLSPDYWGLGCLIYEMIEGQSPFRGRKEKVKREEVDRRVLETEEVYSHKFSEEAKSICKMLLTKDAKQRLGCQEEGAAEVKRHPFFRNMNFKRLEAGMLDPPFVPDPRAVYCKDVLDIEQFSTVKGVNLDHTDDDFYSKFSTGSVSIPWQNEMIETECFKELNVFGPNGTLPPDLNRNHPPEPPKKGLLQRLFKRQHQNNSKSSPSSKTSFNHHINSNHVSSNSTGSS
Chain of PAK2 (Q13177 whole entry): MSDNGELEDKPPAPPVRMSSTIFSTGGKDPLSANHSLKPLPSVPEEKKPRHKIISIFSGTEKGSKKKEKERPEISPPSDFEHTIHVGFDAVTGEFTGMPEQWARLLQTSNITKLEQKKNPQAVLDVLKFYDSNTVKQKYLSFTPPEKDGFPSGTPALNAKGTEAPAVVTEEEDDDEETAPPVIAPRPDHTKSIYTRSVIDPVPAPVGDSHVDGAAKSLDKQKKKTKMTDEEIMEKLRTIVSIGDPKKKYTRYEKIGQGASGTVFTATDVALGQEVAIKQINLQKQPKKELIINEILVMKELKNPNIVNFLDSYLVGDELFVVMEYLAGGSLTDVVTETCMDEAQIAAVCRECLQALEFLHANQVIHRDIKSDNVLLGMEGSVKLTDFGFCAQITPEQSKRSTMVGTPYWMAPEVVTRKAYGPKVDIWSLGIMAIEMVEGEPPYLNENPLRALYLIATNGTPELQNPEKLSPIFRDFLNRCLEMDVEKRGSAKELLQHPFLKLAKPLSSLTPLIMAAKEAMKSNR
Chain of p70S6K/RPS6KB1 (P23443 whole entry): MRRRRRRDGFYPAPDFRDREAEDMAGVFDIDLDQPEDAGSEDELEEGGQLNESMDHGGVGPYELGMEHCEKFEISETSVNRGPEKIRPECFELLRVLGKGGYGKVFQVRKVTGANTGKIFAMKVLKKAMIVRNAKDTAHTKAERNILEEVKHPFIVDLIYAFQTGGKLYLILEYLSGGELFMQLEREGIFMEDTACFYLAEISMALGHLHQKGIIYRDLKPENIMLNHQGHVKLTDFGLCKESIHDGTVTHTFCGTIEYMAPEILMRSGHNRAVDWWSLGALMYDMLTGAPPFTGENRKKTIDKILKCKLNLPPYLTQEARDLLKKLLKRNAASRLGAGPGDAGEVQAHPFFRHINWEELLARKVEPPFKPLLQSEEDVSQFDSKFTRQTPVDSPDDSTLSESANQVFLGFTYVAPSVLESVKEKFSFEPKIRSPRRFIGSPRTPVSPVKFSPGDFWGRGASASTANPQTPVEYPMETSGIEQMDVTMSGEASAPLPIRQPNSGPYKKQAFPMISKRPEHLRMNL
Chain of ABL1 (P00519 whole entry): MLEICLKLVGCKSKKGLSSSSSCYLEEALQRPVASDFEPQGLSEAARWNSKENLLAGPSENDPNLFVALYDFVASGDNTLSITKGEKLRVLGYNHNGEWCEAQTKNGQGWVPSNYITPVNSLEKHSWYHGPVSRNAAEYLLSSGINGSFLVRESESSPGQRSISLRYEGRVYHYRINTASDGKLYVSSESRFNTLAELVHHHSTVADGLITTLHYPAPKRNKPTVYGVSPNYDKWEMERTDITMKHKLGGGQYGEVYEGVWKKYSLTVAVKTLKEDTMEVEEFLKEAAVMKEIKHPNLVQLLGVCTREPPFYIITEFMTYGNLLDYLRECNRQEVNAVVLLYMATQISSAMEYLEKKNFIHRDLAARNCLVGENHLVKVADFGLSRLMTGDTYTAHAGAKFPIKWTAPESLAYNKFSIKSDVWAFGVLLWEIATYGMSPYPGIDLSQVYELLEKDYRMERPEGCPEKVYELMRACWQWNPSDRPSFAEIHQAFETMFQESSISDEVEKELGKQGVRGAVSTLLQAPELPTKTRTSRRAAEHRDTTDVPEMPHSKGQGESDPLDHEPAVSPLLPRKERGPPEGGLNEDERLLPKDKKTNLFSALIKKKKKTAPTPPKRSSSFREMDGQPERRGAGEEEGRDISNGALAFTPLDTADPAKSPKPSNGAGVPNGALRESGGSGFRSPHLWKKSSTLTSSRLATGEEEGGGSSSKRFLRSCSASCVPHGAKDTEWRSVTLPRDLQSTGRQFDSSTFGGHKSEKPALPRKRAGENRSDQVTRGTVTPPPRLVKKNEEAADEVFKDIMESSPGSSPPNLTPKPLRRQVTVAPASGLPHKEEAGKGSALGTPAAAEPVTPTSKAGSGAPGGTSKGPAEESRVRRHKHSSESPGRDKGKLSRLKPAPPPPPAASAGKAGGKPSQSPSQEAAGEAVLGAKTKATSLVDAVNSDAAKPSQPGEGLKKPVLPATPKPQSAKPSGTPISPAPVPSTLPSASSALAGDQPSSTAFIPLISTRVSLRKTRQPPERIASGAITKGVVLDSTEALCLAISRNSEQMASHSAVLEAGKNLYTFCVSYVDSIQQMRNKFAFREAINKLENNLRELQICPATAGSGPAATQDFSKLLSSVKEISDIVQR
Chain of BLK (P51451 whole entry): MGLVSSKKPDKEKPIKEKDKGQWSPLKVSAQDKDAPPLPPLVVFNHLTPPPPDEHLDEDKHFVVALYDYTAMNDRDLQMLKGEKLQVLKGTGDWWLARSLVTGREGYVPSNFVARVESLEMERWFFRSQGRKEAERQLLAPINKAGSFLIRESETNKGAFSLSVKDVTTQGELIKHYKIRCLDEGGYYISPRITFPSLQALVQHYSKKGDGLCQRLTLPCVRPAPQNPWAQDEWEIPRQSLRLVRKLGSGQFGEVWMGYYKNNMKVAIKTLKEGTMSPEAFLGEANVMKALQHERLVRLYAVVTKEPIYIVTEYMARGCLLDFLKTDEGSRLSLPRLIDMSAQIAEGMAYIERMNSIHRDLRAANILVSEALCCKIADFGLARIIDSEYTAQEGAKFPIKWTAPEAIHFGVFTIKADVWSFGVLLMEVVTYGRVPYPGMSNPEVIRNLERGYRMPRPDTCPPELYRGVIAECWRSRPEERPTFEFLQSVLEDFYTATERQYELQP

COc1cc(-c2cncc(-c3ccc(N4CCN(C)CC4)cc3)c2C)cc(F)c1C(N)=O [Compound 26a, 2-Fluoro-6-methoxy-4-(4-methyl-5-(4-(4-methylpiperazin-1-yl)phenyl)pyridin-3-yl)benzamide]
% enzyme activity (ABL1): 75.12% | % enzyme activity (p70S6K/RPS6KB1): 96.69% | % enzyme activity (MAPKAPK5/PRAK): 90.60% | remaining activity at 1 µM (LATS1): 97.4% | % enzyme activity (PAK2): 100.35% | remaining activity at 1 µM (CTK/MATK): 95.2% | remaining activity at 1 µM (GRK5): 104% | remaining activity at 1 µM (BLK): 97.2% | remaining activity at 1 µM (VRK2): 89.1%

COc1cc(-c2cncc(-c3ccc(N4C[C@@H](C)N(C)[C@@H](C)C4)cc3)c2C)cc(F)c1C(N)=O [Compound 26c, 2-Fluoro-6-methoxy-4-(4-methyl-5-(4-((3R,5S)-3,4,5-trimethylpiperazin-1-yl)phenyl)pyridin-3-yl)benzamide]
% enzyme activity (ABL1): 82.07% | % enzyme activity (p70S6K/RPS6KB1): 99.76% | % enzyme activity (MAPKAPK5/PRAK): 94.46% | remaining activity at 1 µM (LATS1): 102% | % enzyme activity (PAK2): 103.95% | remaining activity at 1 µM (CTK/MATK): 99.2% | remaining activity at 1 µM (GRK5): 93.1% | remaining activity at 1 µM (BLK): 104% | remaining activity at 1 µM (VRK2): 92.5%
